Measured values: the NIST ThermoML archive (doi:10.1021/je7003116)

Assay: mn = molality of the nth substance listed, in mol/kg
Details: for electrical conductivity / mass density: 101 kPa, Liquid; for electrical conductivity: Alternating current cell with electrodes

CC(=O)CC(c1ccccc1)c1c([O-])c2ccccc2oc1=O.[Na+] (stereo not given) [warfarin sodium] + O
Details	electrical conductivity [S/m]	mass density [kg/m3]	surface tension liquid-gas [mN/m]
293.15 K, m1 = 0.005	0.0273	–	–
293.15 K, m1 = 0.00573	–	998.701	–
293.15 K, m1 = 0.006	0.0326	–	66.46
293.15 K, m1 = 0.00689	–	998.801	–
293.15 K, m1 = 0.007	0.0379	–	65.61
293.15 K, m1 = 0.00749	–	998.852	–
293.15 K, m1 = 0.008	0.0434	–	64.92
293.15 K, m1 = 0.00851	–	998.94	–
293.15 K, m1 = 0.009	0.0485	–	64.06
293.15 K, m1 = 0.00983	–	999.054	–
293.15 K, m1 = 0.01	0.0535	–	62.77
293.15 K, m1 = 0.018	–	–	58.07
293.15 K, m1 = 0.02	0.1042	–	–
293.15 K, m1 = 0.02401	–	1000.27	–
293.15 K, m1 = 0.027	–	–	52.97
293.15 K, m1 = 0.04	0.198	–	50.48
293.15 K, m1 = 0.0466	–	1002.19	–
293.15 K, m1 = 0.054	–	–	48.47
293.15 K, m1 = 0.06	0.283	–	–
293.15 K, m1 = 0.067	–	–	45.58
293.15 K, m1 = 0.0718	–	1004.26	–
293.15 K, m1 = 0.078	–	–	43.98
293.15 K, m1 = 0.08	0.381	–	–
293.15 K, m1 = 0.089	–	–	41.68
293.15 K, m1 = 0.0984	–	1006.41	–
293.15 K, m1 = 0.1	0.464	–	–
293.15 K, m1 = 0.107	–	–	41.58
293.15 K, m1 = 0.125	0.56	–	40.94
293.15 K, m1 = 0.1251	–	1008.51	–
293.15 K, m1 = 0.15	0.651	1010.43	40.38
293.15 K, m1 = 0.175	0.737	–	40.23
293.15 K, m1 = 0.176	–	1012.59	–
293.15 K, m1 = 0.2	0.822	1014.56	40.72
293.15 K, m1 = 0.225	0.901	1016.71	40.23
293.15 K, m1 = 0.25	0.974	1018.89	39.64
293.15 K, m1 = 0.275	1.041	1020.99	–
293.15 K, m1 = 0.279	–	–	40.09
293.15 K, m1 = 0.3	1.102	1023.15	–
293.15 K, m1 = 0.325	–	1025.24	–
293.15 K, m1 = 0.35	–	1027.33	–
293.15 K, m1 = 0.375	–	1029.29	–
293.15 K, m1 = 0.401	–	1031.33	–
303.15 K, m1 = 0.005	0.0288	–	–
303.15 K, m1 = 0.00579	–	996.134	–
303.15 K, m1 = 0.006	0.0344	–	–
303.15 K, m1 = 0.00695	–	996.231	–
303.15 K, m1 = 0.007	0.04	–	–
303.15 K, m1 = 0.00754	–	996.281	–
303.15 K, m1 = 0.008	0.0455	–	–
303.15 K, m1 = 0.00857	–	996.367	–
303.15 K, m1 = 0.009	0.051	–	–
303.15 K, m1 = 0.00987	–	996.476	–
303.15 K, m1 = 0.01	0.0565	–	–
303.15 K, m1 = 0.02	0.1087	–	–
303.15 K, m1 = 0.024	–	997.658	–
303.15 K, m1 = 0.04	0.209	–	–
303.15 K, m1 = 0.0465	–	999.515	–
303.15 K, m1 = 0.06	0.302	–	–
303.15 K, m1 = 0.0715	–	1001.52	–
303.15 K, m1 = 0.08	0.39	–	–
303.15 K, m1 = 0.0983	–	1003.59	–
303.15 K, m1 = 0.1	0.473	–	–
303.15 K, m1 = 0.125	0.575	1005.62	–
303.15 K, m1 = 0.15	0.67	1007.48	–
303.15 K, m1 = 0.175	0.761	–	–
303.15 K, m1 = 0.2	0.847	–	–
303.15 K, m1 = 0.225	0.928	–	–
303.15 K, m1 = 0.25	1.008	–	–
303.15 K, m1 = 0.275	1.081	–	–
303.15 K, m1 = 0.3	1.154	–	–
